Laboratory results from ChEMBL document CHEMBL5233266, “β-Carboline as a Privileged Scaffold for Multitarget Strategies in Alzheimer's Disease Therapy” (J Med Chem, 2021).

Assays:
Histone deacetylase 4 = Histone deacetylase 4 (Homo sapiens, UniProt P56524); experiment: Inhibition of HDAC4 (unknown origin)
Histone deacetylase 8 = Histone deacetylase 8 (Homo sapiens, UniProt Q9BY41); experiment: Inhibition of HDAC8 (unknown origin)
Histone deacetylase 1 = Histone deacetylase 1 (Homo sapiens, UniProt Q13547); experiment: Inhibition of HDAC1 (unknown origin)
Sequence of Histone deacetylase 1 (Q13547 whole entry): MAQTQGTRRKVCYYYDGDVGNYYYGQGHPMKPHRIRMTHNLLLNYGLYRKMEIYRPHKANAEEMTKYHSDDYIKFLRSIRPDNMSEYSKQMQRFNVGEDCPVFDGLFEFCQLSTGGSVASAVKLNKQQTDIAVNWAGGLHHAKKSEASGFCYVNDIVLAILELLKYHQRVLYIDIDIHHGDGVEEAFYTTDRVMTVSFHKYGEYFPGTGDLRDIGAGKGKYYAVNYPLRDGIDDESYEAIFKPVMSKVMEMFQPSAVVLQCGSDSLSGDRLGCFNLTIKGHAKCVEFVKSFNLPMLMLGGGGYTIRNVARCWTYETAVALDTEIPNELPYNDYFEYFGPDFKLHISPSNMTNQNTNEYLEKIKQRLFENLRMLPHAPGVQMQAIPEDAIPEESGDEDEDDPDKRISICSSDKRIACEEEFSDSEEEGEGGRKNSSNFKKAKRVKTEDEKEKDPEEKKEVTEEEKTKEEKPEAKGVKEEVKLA

Sequence of Histone deacetylase 4 (P56524 whole entry): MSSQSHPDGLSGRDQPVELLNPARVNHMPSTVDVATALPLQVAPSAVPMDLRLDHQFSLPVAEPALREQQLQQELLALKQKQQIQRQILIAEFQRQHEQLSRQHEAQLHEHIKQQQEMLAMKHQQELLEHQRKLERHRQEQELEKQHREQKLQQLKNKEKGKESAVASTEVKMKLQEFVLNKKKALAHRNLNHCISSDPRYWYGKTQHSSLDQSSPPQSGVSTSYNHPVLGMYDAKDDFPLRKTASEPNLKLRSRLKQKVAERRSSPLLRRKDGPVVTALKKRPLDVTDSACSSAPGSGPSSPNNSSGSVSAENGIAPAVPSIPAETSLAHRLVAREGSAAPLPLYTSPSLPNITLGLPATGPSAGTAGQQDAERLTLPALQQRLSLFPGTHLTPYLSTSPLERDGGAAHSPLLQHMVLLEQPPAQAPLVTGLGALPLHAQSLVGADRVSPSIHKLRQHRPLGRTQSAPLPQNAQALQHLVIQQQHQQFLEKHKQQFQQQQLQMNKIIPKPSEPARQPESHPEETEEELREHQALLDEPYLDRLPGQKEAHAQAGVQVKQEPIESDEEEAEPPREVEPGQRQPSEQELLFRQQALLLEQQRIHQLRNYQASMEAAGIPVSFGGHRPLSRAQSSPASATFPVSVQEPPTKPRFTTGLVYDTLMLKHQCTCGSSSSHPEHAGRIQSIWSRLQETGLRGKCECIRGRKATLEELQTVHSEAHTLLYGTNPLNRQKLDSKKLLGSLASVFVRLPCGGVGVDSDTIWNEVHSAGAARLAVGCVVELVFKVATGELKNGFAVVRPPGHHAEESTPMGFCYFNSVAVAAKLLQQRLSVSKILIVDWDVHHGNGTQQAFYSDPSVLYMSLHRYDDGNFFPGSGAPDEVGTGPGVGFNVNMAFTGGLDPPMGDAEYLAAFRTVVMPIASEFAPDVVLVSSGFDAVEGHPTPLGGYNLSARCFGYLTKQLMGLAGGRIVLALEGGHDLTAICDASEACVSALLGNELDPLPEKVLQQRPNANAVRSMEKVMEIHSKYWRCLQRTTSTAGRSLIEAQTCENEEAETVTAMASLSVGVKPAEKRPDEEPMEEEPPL
Sequence of Histone deacetylase 8 (Q9BY41 whole entry): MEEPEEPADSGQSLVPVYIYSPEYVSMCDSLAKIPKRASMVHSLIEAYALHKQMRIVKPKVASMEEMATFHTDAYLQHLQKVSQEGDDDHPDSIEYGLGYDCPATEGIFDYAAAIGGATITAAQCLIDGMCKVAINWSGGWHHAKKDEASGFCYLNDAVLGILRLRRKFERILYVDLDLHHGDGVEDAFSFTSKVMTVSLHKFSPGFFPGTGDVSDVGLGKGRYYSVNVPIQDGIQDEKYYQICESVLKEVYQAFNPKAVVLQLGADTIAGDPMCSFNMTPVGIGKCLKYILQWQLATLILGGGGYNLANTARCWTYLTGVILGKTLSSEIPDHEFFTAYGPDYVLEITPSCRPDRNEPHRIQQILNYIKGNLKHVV

IC50 (Histone deacetylase 4): > 1000 nM
IC50 (Histone deacetylase 8): > 1000 nM
IC50 (Histone deacetylase 1): 4.1 nM
Compound: COc1ccc(-c2nc(C(=O)NCc3ccc(C(=O)NO)cc3)cc3c2[nH]c2ccccc23)cc1
